From paper PMC3764137, “Sulphamoylated 2-Methoxyestradiol Analogues Induce Apoptosis in Adenocarcinoma Cell Lines” (PLoS ONE, 2013)

How the values were obtained:
Assay type in all cases: cell-based, human
HeLa cells [1] = assay: Cytotoxicity: lactate dehydrogenase assay; details: 24 h, compared to vehicle-treated cells
Procedure: Lactate dehydrogenase (LDH) is a soluble cytosolic enzyme that catalyzes the interconversion of lactate and pyruvate. Cells release LDH during injury or cell damage, following the loss of membrane integrity consequential from either apoptosis or necrosis. LDH activity can therefore be used as an indicator of cell membrane integrity and serves as a general mean to assess for cytotoxicity resulting from exposure to chemical compounds. Cells were seeded in 96 well plates at a cell density of 5,000 cells per well (incubated at 37°C at 5% CO2). After 24 h, cells were exposed to 0.1–25 μM sulphamoylated 2ME2 analogues including vehicle-treated controls and incubated for 24 h at 37°C. Subsequently, the 200 μl medium was transferred and centrifuged at 5,000 rpm for 10 min. Supernatant (10 μl) was then transferred to an optimally clear 96 well plate. LDH reaction mix (100 μl mixed according to the supplier's manual instructions) was added to the medium. After 90 min incubation at room temperature, the absorbance was read at 460 nm (reference wavelength of 630 nm) with an ELx800 Universal Microplate Reader from Bio-Tek Instruments Inc. (Vermont, United States of America).

HeLa cells [2] = assay: Mitochondrial membrane potential assay (Mitocapture, flow cytometry); details: 0.5 μM analogues (2-methoxyestradiol-bis-sulphamate 0.55 μM), 24 h
Procedure: Cells (500,000) were seeded with an overnight attachment policy. After 24 h of exposure to 0.5 μM of the sulphamoylated 2ME2 analogues, cells were detached using trypsin and centrifuged at 13,000×g.

caspase 3 = assay: Caspase 3 colorimetric assay in MDA-MB-231 cells; details: MDA-MB-231, 0.5 μM, 24 h
Procedure: (§1) Possible activation of caspase 3, -6 and -8 was investigated by means of caspase 3, caspase 6 and FLICE/caspase 8 colorimetric kits, respectively. Cells (1,000,000) were seeded with an overnight attachment policy. After 24 h of exposure to 0.5 μM of the sulphamoylated 2ME2 analogues, cells were detached with trypsin and centrifuged at 13,000× g. Cells (500,000) were resuspended in 50 µl of chilled cell lysis buffer and incubated on ice for 10 min. Cells were centrifuged at 10,000×g for a min. Supernatant was transferred to a fresh tube and put on ice. After determination of the protein concentration using the bicinchoninic acid (BCA) protein assay (Thermo Fisher Scientific, Johannesburg, South Africa), 100 µg protein/50 µl cell lysis buffer was mixed with 50 µl 2X reaction buffer (containing 10 mM Dithiothreitol (DTT)). Ac-Asp-Glu-Val-Asp-p-nitroanilide (Ac-DEVD-pNA) (5 µl of 4 mM) (caspase-3-specific substrate), or 5 µl 4 mM […] (Ac-VEID-pNA) (caspase-6-specific substrate), or 5 µl 4 mM Ac-Ile-Glu-Thr-Asp-p-nitroanilide (Ac-IETD-pNA) (caspase-8-specific substrate) was added and the mixture was incubated at 37°C for 120 min (200 µM final concentration). Absorbance was determined at 405 nm on the ELx800 Universal Microplate Reader available from Bio-Tek Instruments Inc. (Vermont, United States of America).

HeLa cells [3] = assay: Cell morphology by transmission electron microscopy; details: 24 h; for cell shrinkage (TEM): compared to vehicle-treated cells
Procedure: The in vitro influence of ESE-15-one, EMBS and ESE-16 on cell morphology was determined after exposure for 24 h using transmission electron microscopy (TEM). […] After each fixation step the samples were rinsed 3 times in 0.0075 M sodium phosphate buffer (pH 7.4). Samples were dehydrated using increasing concentrations of ethanol (30%, 50%, 70%, 90%, and 3×100%) and embedded in Quetol resin, sectioned with a microtome and placed on copper discs. Sections were contrasted with 4% aqueous uranyl acetate and Reynolds' lead citrate and viewed with a JOEL JEM 2100F transmission electron microscope (Electron Microscopy Unit, University of Pretoria, South Africa).

caspase-6 = assay: Caspase 6 colorimetric assay; details: 0.5 μM, 24 h
Procedure: as §1

| Compound | LDH levels / LDH release (HeLa cells [1]) | cells with reduced mitochondrial potential (HeLa cells [2]) [%] | caspase 3 activity (caspase 3) | apoptotic bodies (TEM) (HeLa cells [3]) | vacuoles (TEM) (HeLa cells [3]) | cell shrinkage (TEM) (HeLa cells [3]) | caspase-6 activity ratio compared to vehicle-treated cells (caspase-6) | cell debris (TEM) (HeLa cells [3]) |
| --- | --- | --- | --- | --- | --- | --- | --- | --- |
| CCc1cc2c(cc1OS(N)(=O)=O)CC[C@@H]1[C@@H]2CC[C@]2(C)C(=O)C=C[C@@H]12 [ESE-15-one, 2-Ethyl-3-O-sulphamoyl-estra-1,3,5 (10) 15-tetraene-3-ol-17one] | No statistically significant increase in LDH levels | 72 | most affected | Apoptotic bodies were observed | vacuoles | shrunken | – | – |
| CCc1cc2c(cc1OS(N)(=O)=O)CC[C@@H]1C2CC[C@]2(C)[C@@H](OS(N)(=O)=O)CC[C@@H]12 (stereo partly drawn) [EMBS, (8R, 13S, 14S, 17S)-2-ethyl-13-methyl-7,8,9, 11, 12,13, 14, 15, 16, 17-decahydro-6H-cyclopenta [a] phenanthrane-3, 17-diyl bis (sulphamate)] | No statistically significant increase in LDH levels | – | – | – | vacuoles | shrunken | 3.1 | Cell debris was observed |
